Source: the NIST ThermoML archive (doi:10.1007/s10765-016-2109-2)

Assay: molar heat capacity at saturation pressure
Settings: Liquid, Vacuum adiabatic calorimetry

CCCCCC[n+]1ccn(C)c1.O=S(=O)([N-]S(=O)(=O)C(F)(F)F)C(F)(F)F
Settings	molar heat capacity [J/K/mol]
288.72 K	599.09
288.87 K	602.23
289.04 K	592.83
289.17 K	597.31
289.3 K	604.91
289.44 K	590.59
289.57 K	596.41
289.7 K	599.99
289.83 K	601.78
297.45 K	599.54
297.76 K	608.04
297.89 K	604.46
298.02 K	598.65
298.15 K	596.41
298.28 K	606.25
298.41 K	601.78
298.53 K	599.99
298.66 K	603.57
301.64 K	606.7
301.75 K	608.94
301.88 K	612.52
302.01 K	606.7
302.13 K	613.41
302.26 K	605.81
304.3 K	608.49
304.69 K	603.12
304.82 K	606.7
304.95 K	612.52
305.08 K	604.46
305.2 K	610.73
305.33 K	607.6
305.46 K	613.41
305.59 K	609.39
314.15 K	619.68
314.57 K	615.2
314.69 K	607.6
314.82 K	616.99
314.94 K	611.62
315.07 K	612.52
315.2 K	618.33
315.32 K	614.75
315.45 K	608.94
320.89 K	620.12
321.17 K	622.81
321.3 K	614.75
321.42 K	621.02
321.55 K	613.41
321.67 K	616.99
321.79 K	616.1
321.92 K	619.23
322.04 K	622.36
322.16 K	621.02
322.29 K	618.33
322.41 K	623.7
323.89 K	624.15
324.15 K	620.57
324.28 K	625.49
324.4 K	627.73
324.52 K	629.07
324.65 K	621.47
324.77 K	622.81
324.89 K	617.89
325.02 K	621.02
325.14 K	625.05
325.24 K	622.36
325.26 K	623.7
333.63 K	634.44
333.82 K	633.99
333.94 K	626.83
334.06 K	631.76
334.18 K	629.07
334.3 K	632.65
334.42 K	636.68
334.54 K	633.1
334.66 K	627.28
334.79 K	631.31
334.91 K	629.97
339.73 K	638.92
339.83 K	637.13
339.95 K	634.89
340.03 K	643.39
340.15 K	635.78
340.27 K	640.7
340.39 K	642.05
340.51 K	638.47
344.34 K	641.6
344.46 K	645.63
344.58 K	642.49
344.7 K	644.73
344.82 K	639.36
344.93 K	648.31
345.05 K	647.42
345.17 K	645.18
345.29 K	638.47
345.41 K	643.84
348.64 K	645.18
348.76 K	643.84
348.88 K	648.31
348.99 K	646.97
349.11 K	649.65
349.23 K	648.76
349.35 K	644.73
349.47 K	647.42
349.58 K	643.39
349.65 K	648.31
349.7 K	645.63
349.82 K	643.39
349.94 K	645.63
350.05 K	644.73
350.17 K	646.97
350.29 K	647.86
350.36 K	647.42
